Experiments:
HepG2 cells [1] = assay: Cell Proliferation Kit-XTT, metabolic activity; assay type: cell-based, Human; conditions: 20 nM; 72 h
Description: The effect of 9NC (5 to 80 nM) on cell proliferation and DNA synthesis was evaluated by the Cell Proliferation Kit-XTT (Boehringer Mannheim Corp., IN), a non-radioactive, calorimetric ELISA assay which reflects mitochondrial dehydrogenase activity. The assay is based on the cleavage of the yellow tetrazolium salt XTT to form an orange formazan dye by dehydrogenase activity in active mitochondria. This conversion occurs only in living cells and correlates with their overall metabolic activity.
(§1) Human hepatoblastoma cells, HepG2 cells were obtained from the American Type Culture Collection and maintained in RPMI-1640 medium (GIBCO, Grand Island, N.Y.) supplemented with 10% fetal bovine serum (GIBCO), 100 units/ml of penicillin, […] of streptomycin, […] of amphotericin (Sigma Chemical Co.), and 4 mM L-glutamine (GIBCO). The cell cultures were incubated at 37° C. in a humidified CO2 (5%) atmosphere. The cell number in untreated and 9NC-treated cultures was determined with the aid of cell counter (Coulter Electric, Inc., Hialeah, Fla.) and cell viability was monitored by trypan blue dye exclusion.
9NC was semisynthesized from CPT and purified as described by Wani, M. C. et al. (J. Med. Chem. 29:2358-2363 (1986)). A fine suspension of 9NC (10 μM) was prepared in polyethylene glycol (PEG 400; Aldrich, Milwaukee, Wis.), divided into small aliquots and stored at −80° C. until used. […]

[2] = test system: SDI-1 mRNA in HepG2 cells; assay: Northern blot of SDI-1 mRNA (SDI-1/GAPDH) in 9NC-treated cells; assay type: cell-based, Human
Description: Therefore, initial studies to evaluate the levels of SDI-1 were performed with low doses of 9NC. Total RNA was isolated from HepG2 cells treated with 5 nM and 20 nM 9NC for 72 h and the levels of SDI-1 mRNAs expression in cells were examined by Northern blot hybridization analysis. […] The relative amount of SDI-1 mRNA in each sample was calculated as the ratio of SDI-1/GAPDH.
Caffeine abolishes G2 cell cycle checkpoint induced by DNA-damaging agents (Traganos, F. et al., Canc. Res. 53:4613-4618 (1993); Lau, C. C. et al., Proc. Natl. Acad. Sci. (U.S.A.) 79:2942-2946 (1982)). To assess the specificity of SDI-1 induction by 9NC, the levels of SDI-1 expressions were evaluated via Northern blot analysis after simultaneous addition of caffeine (1 mM) and 9NC. […] To establish the kinetics of 9NC-induced upregulation of SDI-1 gene, the cells cultured for 24 h in control medium were treated with 20 nM of 9NC for 0.5 h, 1.5 h, 3 h, 6 h, 12 h, and 24 h respectively.

HepG2 cells [3] = assay: Cell number by cell counter; assay type: cell-based, Human; conditions: 20 nM; 72 h
Description: as §1
This inhibitory effect was not associated with cell death as assessed by trypan blue dye exclusion.

HepG2 cells [4] = assay: BrdU incorporation ELISA, DNA synthesis; assay type: cell-based, Human; conditions: 20 nM; 72 h
Description: as §1
DNA synthesis was measured by 5-bromo-2′-deoxy-uridine (BrdU) incorporation into cellular DNA following 24 h and 72 h. treatment with 9NC using the Cell Proliferation Assay Kit-BrdU/ELISA (Boehringer Mannheim Corp.). Inhibition of DNA synthesis correlated with the length of 9NC treatment and the concentration of 9NC in the cell culture.

HepG2 cells [5] = assay: Phase contrast microscopy, cell size; assay type: cell-based, Human; conditions: 9NC-treated cells
Excerpt: After 3 to […] of treatment the morphology of the cells remained stable with very little change during the three to four week culture period. Overall, cells appeared to be healthy and metabolically active, and resembled the morphology of primary human hepatocytes grown on plastic surfaces. Virtually no cell proliferation was observed following removal of 9NC and the cells maintained a differentiated phenotype without growth.

[6] = test system: normal human neonatal foreskin fibroblast cells (strain HCA2); assay: Growth arrest by tritiated thymidine incorporation after DNA damaging / growth arrest agents; assay type: cell-based; conditions: doses as in Table 10; tritiated thymidine added 16 hours after treatment for 8 hours
Description: (§2) To evaluate the effect of DNA damaging agents on SDI mRNA production, normal human neonatal foreskin fibroblast cells (strain HCA2); an immortalized cell line (TE85, obtainable from the American Type Culture Collection, Rockville, Md., US), and the above-described MDAH 041 cell lines were employed. All cells were cultured in Eagle's minimal essential medium with Earl's salts plus 10% fetal bovine serum (Gibco BRL, Gaithersburg, Md., US) in 5% CO2 at 37° C., or in Hanks salts plus 10% fetal bovine serum at 37° C. HCA2 cells achieve approximately 80 population doublings before becoming senescent. The cells were used at population doubling 27 or less.
(§3) For UV irradiation, cells were cultured in 150 cm^2 tissue culture dishes. Immediately prior to treatment the medium was removed and the dishes, without lids, were placed in a Stratagene (La Jolla, Calif., US) StratalinkerUV cross-linking device and irradiated with a dose of 30 J/m^2. Fresh serum-supplemented medium was then added and the cells were incubated at 37° C., 5% CO2. γ-irradiation was performed on cells in complete cell culture medium in 25 cm^2 tissue culture flasks, using a fixed ^137Cs source. The dose rate was 4.21 Gy/min. Exposure was to 4 Gy.
(§4) Tritiated thymidine was added 16 hours following each such treatment and the cells were incubated for 8 hours, fixed and processed for autoradiography; as described above. RNA was harvested 4 or 24 hours post treatment using RNAzol B (Cinna/Biotecx, Houston, Tex.) according to the manufacturer's protocol. 10-20 μg of RNA was separated on a 1.2% agarose gel with 20% formaldehyde, transferred to a Gene screen plus (EN, Boston, Mass.) membrane, probed, and quantitated. Fold induction was determined by comparing treated samples with untreated controls. Controls were mock treated cells put through the same washing, media change, transportation, and inadvertent temperature fluctuation as those receiving treatment. Controls for agents dissolved in ethanol or dimethyl sulfoxide were exposed to the same concentration of the solvent alone. SDI-1 RNA values were normalized to GAPBH levels.

SDI-1 mRNA = assay: Northern analysis of SDI-1 RNA after DNA damaging / growth arrest agents; conditions: bleomycin 75 μg/ml 4 hr; etoposide 400 μM 8 hr; H2O2 400 μM 1 hr; MMS 100 μg 4 hr; Mitomycin C 5 μg/ml 30 hr; CdCl2 250 μM 1 hr; hydroxyurea 2 mM 24 hr; prostaglandin A2 10 μg/ml 24 hr
Description: as §2, §3, §4

SDI-1 message in TE85 = assay: SDI-1 message level after agents in cells lacking functional p53; assay type: cell-based, human; conditions: TE85 (mutant p53); agents of Table 10
Description: as §2, §4
(§5) This gene also requires functional p53 for induction by γ-irradiation but not by most other agents (Zhan, Q. et al., Molec. Cell. Biol. 13:4242-4250 (1993)). GADD45 is a member of a family of genes that were identified based upon their induction by both growth arrest and DNA damage (Fornace, A. J. et al., Molec. Cell. Biol. 9:4196-4203 (1989)). […] The above methods can be used to identifiy such additional regulators.

[7] = test system: SDI-1 message in MDAH 041; assay: as above; assay type: cell-based, human; conditions: MDAH 041 (no p53); agents of Table 10
Description: as §2, §4, §5

[8] = test system: cells in medium containing 0.5% FBS; assay: SDI-1 antisense oligonucleotide, tritiated thymidine incorporation in low serum; assay type: cell-based; conditions: 1, 2 or 5 μM on Days 1, 3, 5; harvested day 7
Description: Cells were cultured in medium containing 10% fetal bovine serum (FBS) for approximately one week, at which time the medium was replaced with medium containing 0.5% FBS. The cells were divided into control cells and experimental cells. On Day 1, experimental cells were provided with either 1, 2 or 5 μM of the above-described oligonucleotide; Control cells received no oligonucleotide. On Day 3, and again on Day 5, all cells received fresh medium containing 0.5% FBS; experimental cells received additional oligonucleotides (1, 2 or 5 μM). On Day 6, tritiated thymidine was added to the culture media and the cells were harvested on day 7.

cyclin/cdk2 complexes = molecular target: T1, cyclin/cdk2 complexes (Homo sapiens, UniProt P24941); assay: Histone H1 kinase activity of cyclin/cdk2 complexes immunoprecipitated from HeLa cell extracts; assay type: biochemical; conditions: complexes immunoprecipitated by cdk2 antisera
T1 construct: immunoprecipitated from HeLa cell extracts by cdk2 antisera; endogenous in cells; host or cells: HeLa cell extracts, immunoprecipitated with cdk2 antisera
Excerpt: The physiological significance of inhibition of cell proliferation by overexpression of SDI-1 is strengthened by the finding that SDI-1 can inhibit the kinase activity of cyclin/cdk2 complexes.
[…]

young cells = assay: Cellular uptake of GST-SDI-1 fusions and quiescence; assay type: cell-based
cdk2 protein = molecular target: T2, cdk2 protein (Homo sapiens, UniProt P24941); assay: Binding of in vitro translated SDI-1 deletion mutants to purified cdk2, anti-cdk2 immunoprecipitation; conditions: 45 μl translation product, 1 ug cdk2, 4° C.
T2 construct: host or cells: baculovirus expression system
Description: To determine whether the DNA synthesis inhibition caused by these mutants was occurring through inhibition of cdk kinases, the binding of in vitro translated deletion mutant proteins products with purified cdk2protein was examined. Thus, the various deletion mutants of SDI-1 were translated in reticulocyte lysates (Promega) using pBluescript based plasmids as transcription templates for the T7 RNA polymerase. For in vitro binding, 45 μl of the translation product was added to 500 μl binding buffer (50 mM Tris/HCl, pH 7.5, 120 mM NaCl, 2 mM EDTA, 0.1% NP-40, 1 mM NaF, 0.1 m.M sodium vanidate, 5 μg/ml leupeptin, 5 μg/ml soybean trypsin inhibitor, 5 μg/ml aprotinin) containing 1 ug cdk2 protein purified from a bacculovirus expression system. The mixture was gently rocked for 1 hour at 4° C. and then 7.5 μg anti-cdk2 rabbit polyclonal antibody was added. Mixing was continued for 1 hour at 4° C. The immunocomplex was absorbed by incubation with 40 μl protein G plus A beads for 2 hr. The matrices were then washed three times with 0.5 ml of binding buffer prior to electrophoresis and autoradiography.

`CC[C@@]1(O)C(=O)OCc2c1cc1n(c2=O)Cc2cc3c([N+](=O)[O-])cccc3nc2-1` [9NC] was tested, and the “suppression of metabolic activity” value (HepG2 cells [1]) was “approximately 20%”, the “time at which SDI-1 gene expression reached maximum” value ([2]; 20 nM, 0.5-24 h) was 24 h and the “increase in SDI-1 expression (SDI-1/GAPDH)” value ([2]; 20 nM, 72 h) was “At least 3 fold”. The “decrease in cell numbers” value (HepG2 cells [3]) was “at least 2 fold”, the “decrease in DNA synthesis” value (HepG2 cells [4]) was “at least 4 fold” and the increased cell size (HepG2 cells [5]) was 2 to 5 fold.

With `[Cl][Cd][Cl]` [CdCl2, cadmium chloride] the “% Growth Arrest” value [6] was 0% and the “SDI-1 Level (Fold induction of SDI-1 at 24 hour level)” value (SDI-1 mRNA) was 1.3 Fold induction.

With `OO` [H2O2, hydrogen peroxide] the “% Growth Arrest” value [6] was 95%, the “SDI-1 message level (Control = 1)” value (SDI-1 message in TE85) was 4.0 and the “SDI-1 message level (Control = 1)” value [7] was 3.3.

`COS(C)(=O)=O` [MMS, methyl methane sulfonate] was tested, and the “% Growth Arrest” value [6] was 53%.

In the case of `CO[C@@]12[C@H](COC(N)=O)C3=C(C(=O)C(C)=C(N)C3=O)N1C[C@@H]1N[C@@H]12` [Mitomycin C, mitomycin C], the “% Growth Arrest” value [6] is reported as 100%, the “SDI-1 message level (Control = 1)” value (SDI-1 message in TE85) is reported as 2.5 and the “SDI-1 Level (Fold induction of SDI-1 at 24 hour level)” value (SDI-1 mRNA) is reported as 2.8 Fold induction.

For `Cn1c(=O)c2c(ncn2C)n(C)c1=O` [caffeine], the “effect on SDI-1 expression” value ([2]; caffeine (1 mM) alone) was “no appreciable effect” and the “effect on 9NC-dependent induction of SDI-1 expression” value ([2]; simultaneous addition of caffeine (1 mM) and 9NC) was “abrogated”.

`COc1cc([C@@H]2c3cc4c(cc3[C@@H](O[C@@H]3O[C@@H]5CO[C@@H](C)O[C@H]5[C@H](O)[C@H]3O)[C@H]3COC(=O)[C@H]23)OCO4)cc(OC)c1O` [etoposide] was tested, and the “% Growth Arrest” value [6] was 100%.

`NC(=O)NO` [hydroxyurea] was tested, and the “% Growth Arrest” value [6] was 100%, the “SDI-1 message level (Control = 1)” value (SDI-1 message in TE85) was 7.5 and the “SDI-1 message level (Control = 1)” value [7] was 2.5.

In the case of `CCCCC[C@H](O)/C=C/[C@H]1C=CC(=O)[C@@H]1C/C=C\CCCC(=O)O` [prostaglandin A2], the “% Growth Arrest” value [6] is reported as 100% and the “SDI-1 Level (Fold induction of SDI-1 at 24 hour level)” value (SDI-1 mRNA) is reported as 6.1 Fold induction.

In the case of “AGCCGGTTCTGACATGGCG (chemistry not given here) [antisense oligonucleotide]”, the “tritiated thymidine incorporated into DNA relative to control cells” value [8] is reported as “increase”.

In the case of “GST-SDI-1 fusion protein: Schistosoma japonicum GST 1-226, hinge Pro-Arg-Gly-Asp-Pro-Pro-Ala, SDI-1; SEQ ID NO:11; printed as SDI-1 in Table 8”, the “amount giving half maximal inhibition of histone H1 kinase activity” value (cyclin/cdk2 complexes) is reported as 250 ng, the “quiescence of exposed young cells” value (young cells) is reported as “exhibited quiescence” and the “detection of fusion protein within the cells” value (young cells; provided to young cells) is reported as “detectable within the cells”.

In the case of bleomycin, the “% Growth Arrest” value [6] is reported as 100% and the “SDI-1 Level (Fold induction of SDI-1 at 24 hour level)” value (SDI-1 mRNA) is reported as 11.8 Fold induction.

B1: 72-77: SDI-1 mutant with amino acids 72-77 deleted, HA tagged (protein)
chain: MSEPAGDVRQNPCGSKACRRLFGPVDSEQLSRDCDALMAGCIQEARERWNFDFVTETPLEGDFAWERVRGLPRGLPTGPRRGRDELGGGRRPGTSPALLQGTAEEDHVDLSLSCTLVPRSGEQAEGSPGGPGDSQGRKRRQTSMTDFYHSKRRLIFSKRKP
modifications: left off: small tags and cut ends
notes: SDI-1 mutant with amino acids 72-77 deleted, HA tagged
For B1, the “binding to purified cdk2 protein” value (cdk2 protein) was “bound cdk2 protein efficiently”.

From patent publication US6818215B2, “Antibodies to senescent cell-derived inhibiters of DNA synthesis” (priority 1991, dated 2004)
